Several values for one entry are separate records, joined by “and”; a condition that tells them apart may be missing. Equal values may be shown once.
Key:
[1] = system: peripheral blood mononuclear cells (PBMCs) of healthy donors; test: AnnexinV/PI assay on PBMCs of healthy donors; format: cell-based; conditions: Homo sapiens, PBMC; 24 h incubation, 0.01-100 μM, 5*10^6 cells/ml, normalized to DMSO control; read-out: AnnexinV/PI assay EC50 PBMCs
Method: PBMCs or CLL cells (5*10^6 cells/ml) were incubated for 24 h with different compounds at concentrations from 0.01 to 100 μM. Cell survival was normalized to DMSO control [vehicle]. See Example 1.
Primary CLL or peripheral blood mononuclear cells of healthy donors (5*10^6/ml) were incubated for 24 h with different compounds according to the invention and NO-ASA as a control. The compounds were added in different concentrations, in particular in concentrations from 0.01-100 μM. Cell survival was assessed by AnnexinV/PI assay (Kit commercially available, e.g. by Biotium Inc, USA; or Phoenix Flow Systems, US), the results were normalized to DMSO control [vehicle] and dose response curves were calculated using a non-linear regression model.

[2] = system: JVM3 cells (human chronic B cell leukemia cell line); test: CLL xenograft mouse model (JVM3 cells subcutaneously in SCID beige mice); format: in vivo
Method: Treatment with B9 leads to significant tumor inhibition compared to vehicle control (p=0.015) after nine days with increasing significance up to day 19 of treatment (p=0.0003). IRmax value of 65% for B9 over vehicle control was determined. *=p≤0.05, **=p≤0.01, ***=p≤0.001 calculated by unpaired two-tailed students test, †=death, IR=Inhibition ratio.
Due to its favorable characteristics B9 was chosen for in vivo testing in a CLL xenograft mouse model. JVM3 cells (human chronic B cell leukemia cell line) were injected subcuntaneously into the flank of immunincompetent mice. The developing solid tumor was treated with intraperitoneal injections of 8 mg/kg of compound B9 or sesame oil (vehicle) every other day (see FIG. 4).
1*10^7 JVM3 cells were injected subcutaneously in SCID beige mice (CB17.Cg-Prkdc^scidLyst^bg-J/Crl). Tumors were measured every other day by caliper and the tumor volume was calculated V=(Length*(0.5*Width^2)). Mice carrying a tumor of more than 50 mm^3 were treated every other day with either sesame oil (vehicle control) or with 8 mg/kg B9 solved in sesame oil via intraperitoneal injections. The abortion criteria given by the GV-SOLAS for tumor bearing mice were applied. p-values were calculated using unpaired two-tailed Students test.

[3] = system: MEC-1; test: CellTiter-Glo ATP assay, MEC-1 cell line; format: cell-based; conditions: Homo sapiens, MEC1; 24 h, CellTiter-Glo
Method: Several cell lines (n=5) were treated with different concentrations of p-NO-ASA, B9, B12 and B13 ranging between 0.01 μM and 1000 μM for 24 hours followed by addition of luminogenic CellTiter-Glo®-reagent. […] For each cell line the order of used compound in the bar chart is from left to right as following: p-NO-ASA, B9, B12, B13.
Treatment success in CLL may depend on cytogenetic and molecular parameters as for instance del13q or TP53 gene disruption. Therefore, the NO-ASA derivatives were examined on (chronic) B cell lymphoma cell lines with different geno- and phenotypes (JVM3, EHEB, U2932, MEC-1, GRANTA-519). The cells were treated with concentrations between 0.01 and 1000 μM for 24 h followed by the addition of luminogenic CellTiter-Glo® reagent.

[4] = system: colon carcinoma cell line SW480; test: cells; format: cell-based; conditions: Homo sapiens, SW480, 24 h, read-out: Viability assay EC50, SW480
Method: The cell lines (n=5) were treated with different concentrations of p-NO-ASA, B9, B12 and B13 ranging between 0.01 μM and 100 μM for 24 hours followed by addition of luminogenic CellTiter-Glo®-reagent (see Example 5).
(§1) In the following experiment the possible therapeutic window for NO-ASA derivatives was investigated. […] The melanoma cell line MelJuso, the colon carcinoma cell line SW480, the small cell lung cancer cell line HCC44, the ovarian adenocarcinoma cell line COLO704 and the acute myeloid leukemia cell line SH2 were treated with concentrations of p-NO-ASA and B9, B12 and B13 in a range between 0.01 μM and 100 μM for 24 h, followed by addition of luminogenic CellTiter-Glo® reagent.
(§2) Table accompanying Example 5. Overview of the EC50 values of cell survival analyzed by ATP content and Annexin V/PI assay. n.t.; not tested

[5] = system: acute myeloid leukemia cell line SH2; test: Viability assay (ATP content, CellTiter-Glo), SH2; format: cell-based; conditions: 24 h
Method: as §1, §2

[6] = system: ovarian adenocarcinoma cell line COLO704; test: Viability assay (ATP content, CellTiter-Glo), COLO704; format: cell-based; conditions: COLO 704, 24 h
Method: as §1, §2

[7] = system: ovarian adenocarcinoma cell line COLO704; test: Annexin V/PI assay, COLO704; format: cell-based; conditions: COLO 704, 24 h
[8] = system: several cancer cell lines; test: Apoptosis (Annexin V/PI) assay, panel of cancer cell lines; format: cell-based; conditions: range over the cancer cell lines, 24 h; read-out: concentrations inducing apoptosis in different diseases (apoptosis array)
[9] = system: phosphorylated NFkappaBp65 protein; test: Western blot of NFkappaB phosphorylation status in CLL cells; format: cell-based, human; conditions: 3 h
Method: CLL cells were treated with B1, B9, B12 and B13 (0.1 μM, 1 μM, 10 μM) for 3 h. Untreated and DMSO (1%) treated cells served as control. GAPDH=loading control.
The BCR signalling pathway plays an important pathogenic role in CLL and lymphomas leading often to a constitutive active NFkappaB (in this state NFkappaB is phosphorylated). Therefore the influence of the derivatives on the phosphorylation status of NFkappaB was analyzed by Western Blot. CLL cells were treated with 0.1 μM, 1 μM or 10 μM of each derivate, respectively, for 3 h. CLL cells were treated with B1, B9, B12 and B13 (0.1 μM, 1 μM, 10 μM) for 3 h. Untreated and DMSO (1%) treated cells served as control. GAPDH=loading control.

[10] = mice, 8 mg/kg i.p. every other day

`O=C(Oc1ccc(CO[N+](=O)[O-])cc1)c1ccccc1` [B9, 4-((nitrooxy)methyl)phenyl benzoate] was tested, and the EC50 [1] was 79.5 µM, the “Inhibition ratio of tumor growth (IR, IRmax) over vehicle control” value ([2]; 8 mg/kg i.p. every other day in sesame oil, highest at day 17) was 65.33% and 65% and the tumor growth ([2]; 8 mg/kg i.p. every other day vs sesame oil vehicle) was “significant reduction in tumor growth”. For the same compound, the tumor volume ([2]; Day 9 of treatment, 8 mg/kg i.p. every other day) was 82.97 mm^3, the bodyweight [2, 10] was “A reduction of bodyweight was not observed” and the severe side effects [2, 10] was “Severe side effects were not observed”. The mobility after treatment ([2]; mice, 8 mg/kg i.p. every other day, drinking and feeding normally) was “slightly reduced mobility for 15 to 30 min”, the EC50 [3] was 6.62 µM and the EC50 [4] was 31.8 µM. For the same compound, the EC50 [5] was 0.16 µM, the EC50 [6] was 4.33 µM and the EC50 [7] was 7.25 µM. For the same compound, the EC50 [8] was 1 to 9 µM, the “reduction of NFkappaB activity (phosphorylated NFkappaBp65)” value ([9]; CLL cells, 0.1, 1, 10 μM) was “concentration dependent reduction” and the “concentration inducing the reduction of NFkappaB p65 protein” value ([9]; CLL cells) was 10 µM.

— patent US10793509B2, “Compounds useful in the treatment of neoplastic diseases” (UNIVERSITÄT ZU KÖLN, priority 2013, dated 2020)
